Measurements reported in paper PMC9120017, “Inhibition mechanism of the chloride channel TMEM16A by the pore blocker 1PBC” (Nature Communications, 2022).
Where two headings read alike, the source gives them in different places.

Target: T1, mouse TMEM16A mutant R535A (Mus musculus, UniProt Q8BHY3, R535A)
T1 construct: expressed in transfected cells; host or cells: HEK293T
T1 sequence (Q8BHY3 1-960 R535A): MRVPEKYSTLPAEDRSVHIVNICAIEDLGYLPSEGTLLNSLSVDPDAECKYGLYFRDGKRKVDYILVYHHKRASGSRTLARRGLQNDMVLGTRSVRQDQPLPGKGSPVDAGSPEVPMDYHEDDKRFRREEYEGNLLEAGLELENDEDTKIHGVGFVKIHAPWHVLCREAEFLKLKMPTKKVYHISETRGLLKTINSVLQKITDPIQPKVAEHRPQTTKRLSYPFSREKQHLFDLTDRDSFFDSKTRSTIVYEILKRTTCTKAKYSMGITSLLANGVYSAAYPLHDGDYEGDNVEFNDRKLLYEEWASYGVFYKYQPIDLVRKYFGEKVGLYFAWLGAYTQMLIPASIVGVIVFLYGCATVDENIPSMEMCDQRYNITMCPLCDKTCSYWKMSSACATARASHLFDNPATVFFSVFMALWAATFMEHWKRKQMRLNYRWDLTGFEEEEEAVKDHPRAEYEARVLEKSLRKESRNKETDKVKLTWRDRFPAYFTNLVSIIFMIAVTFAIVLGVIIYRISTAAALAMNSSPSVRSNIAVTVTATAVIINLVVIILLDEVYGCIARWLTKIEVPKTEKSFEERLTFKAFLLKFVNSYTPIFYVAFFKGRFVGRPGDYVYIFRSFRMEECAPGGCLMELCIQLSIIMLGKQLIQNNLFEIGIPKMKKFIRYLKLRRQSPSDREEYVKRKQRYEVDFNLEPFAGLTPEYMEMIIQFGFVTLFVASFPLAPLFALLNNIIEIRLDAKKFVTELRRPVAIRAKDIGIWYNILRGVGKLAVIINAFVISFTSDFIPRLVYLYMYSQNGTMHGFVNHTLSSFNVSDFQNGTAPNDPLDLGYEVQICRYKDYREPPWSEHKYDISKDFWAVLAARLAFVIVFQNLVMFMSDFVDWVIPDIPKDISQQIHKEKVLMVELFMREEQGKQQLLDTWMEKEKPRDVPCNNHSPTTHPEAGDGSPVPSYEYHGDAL
Assay: Inside-out patch recording of 1PBC block, mutant R535A
Type: cell-based
Settings: for remaining activity at 30 µM: 1PBC 30; for remaining activity at 30 µM / remaining activity at 100 µM: read-out: fraction of unblocked current; for remaining activity at 100 µM: 1PBC 100
Procedure: HEK293T cells (ATCC CRL-1573) were maintained in Dulbecco’s modified Eagle’s medium (DMEM; Sigma-Aldrich) supplemented with 10 U ml^−1 penicillin, 0.1 mg ml^−1 streptomycin (Sigma-Aldrich), 2 mM L-glutamine (Sigma-Aldrich), and 10% FBS (Sigma-Aldrich) in a humidified atmosphere containing 5% CO2 at 37 °C. HEK293S GnTI^− cells (ATCC CRL-3022) were maintained in HyClone HyCell TransFx-H medium (GE Healthcare) supplemented with 10 U ml^−1 penicillin, 0.1 mg ml^−1 streptomycin, 4 mM L-glutamine, 0.15% poloxamer 188 (Sigma-Aldrich), and 1% FBS in an atmosphere containing 5% CO2 at 185 rpm at 37 °C. The ac splice variant of mouse TMEM16A (UniProt ID: Q8BHY3), mouse TMEM16B (UniProt ID: Q8CFW1), or mouse TMEM16F (UniProt ID: Q6P9J9) bearing a 3C cleavage site, a Venus YFP, a Myc tag, and a Streptavidin-binding peptide (SBP) downstream of the open reading frame in a modified pcDNA3.1 vector (Invitrogen) were used as described previously[21],[31]. Mutations were introduced using a modified QuikChange method[58] and were verified by sequencing.
HEK293T cells were transfected with 3–4 μg DNA per 6 cm Petri dish using the calcium phosphate co-precipitation method and were used within 24–96 h after transfection. Recordings were performed on inside-out patches excised from HEK293T cells expressing the construct of interest. Patch pipettes were pulled from borosilicate glass capillaries (O.D. 1.5 mm, I.D. 0.86 mm, Sutter Instrument) and were fire-polished with a microforge (Narishige) before use. Pipette resistance was typically 3–8 MΩ when filled with the recording solutions detailed below. Seal resistance was typically 4 GΩ or higher. Voltage-clamp recordings were made using Axopatch 200B, Digidata 1550, and Clampex 10.7 (Molecular Devices). Analog signals were filtered with the in-built 4-pole Bessel filter at 10 kHz and were digitized at 20 kHz. Solution exchange was achieved using a gravity-fed system through a theta glass pipette mounted on an ultra-fast piezo-driven stepper (Siskiyou). […] All recordings were performed at 20 °C.
A symmetrical ionic condition was used throughout. Stock solution with Ca^2+-EGTA contained 150 mM NaCl, 5.99 mM Ca(OH)2, 5 mM EGTA, and 10 mM HEPES at pH 7.40. Stock solution with EGTA contained 150 mM NaCl, 5 mM EGTA, and 10 mM HEPES at pH 7.40. Free Ca^2+ concentrations were adjusted by mixing the stock solutions at the required ratios calculated using the WEBMAXC program (http://web.stanford.edu/~cpatton/webmaxcS.htm). Patch pipettes were filled with the stock solution with Ca^2+-EGTA, which has a free Ca^2+ concentration of 1 mM. 1PBC (ChemBridge) stock was reconstituted in anhydrous DMSO (Sigma-Aldrich) at 100 mM and stored at −20 °C. Working solutions with 1PBC were prepared by serial dilution. Unless otherwise stated, experiments were performed at a saturating Ca^2+ concentration as shown in Supplementary Table 1 and the primary data were corrected for current rundown as described previously[21],[25].
Concentration-response relations, obtained from the ratio of the I-V plots before and after the application of the blocker, were fitted to the Hill equation,1 I/Imax=1/1+IC50/[blocker]^h where I/Imax is the normalized current responses, IC50 defines the concentration at which inhibition is at its half-maximum, and h is the Hill coefficient.

N#Cc1c(C(F)(F)F)cc(O)n2c1nc1ccccc12 [1PBC]
remaining activity at 30 µM (-60 mV): 41.8% | remaining activity at 30 µM (-80 mV): 46.3% | remaining activity at 30 µM (-100 mV): 50.1% | remaining activity at 30 µM (-120 mV): 53.6% | remaining activity at 30 µM (-140 mV): 55.9% | remaining activity at 100 µM (0 mV): 10.2% | remaining activity at 100 µM (20 mV): 8.03% | remaining activity at 100 µM (40 mV): 6.85% | remaining activity at 100 µM (60 mV): 5.65% | remaining activity at 100 µM (80 mV): 5.26% | remaining activity at 100 µM (100 mV): 4.79% | remaining activity at 100 µM (120 mV): 4.05% | remaining activity at 100 µM (140 mV): 4.54% | remaining activity at 100 µM (-20 mV): 12.4% | remaining activity at 100 µM (-40 mV): 14.1% | remaining activity at 100 µM (-60 mV): 17.7% | remaining activity at 100 µM (-80 mV): 21.3% | remaining activity at 100 µM (-100 mV): 25.1% | remaining activity at 100 µM (-120 mV): 29% | remaining activity at 100 µM (-140 mV): 32.4% | IC50 (20 mV, 2 µM Ca2+): 9.48 µM | IC50 (40 mV, 2 µM Ca2+): 7.82 µM | IC50 (60 mV, 2 µM Ca2+): 6.65 µM | log-fold IC50 (change of mutant vs WT) (80 mV): 0.4043 | IC50 (80 mV, 2 µM Ca2+): 6.02 µM | IC50 (100 mV, 2 µM Ca2+): 5.51 µM | IC50 (120 mV, 2 µM Ca2+): 5.53 µM | IC50 (140 mV, 2 µM Ca2+): 5.76 µM | IC50 (-20 mV, 2 µM Ca2+): 14.9 µM | IC50 (-40 mV, 2 µM Ca2+): 17.7 µM | IC50 (-60 mV, 2 µM Ca2+): 21.4 µM | IC50 (-80 mV, 2 µM Ca2+): 25.9 µM | IC50 (-100 mV, 2 µM Ca2+): 30.1 µM | IC50 (-120 mV, 2 µM Ca2+): 35.1 µM | IC50 (-140 mV, 2 µM Ca2+): 38.8 µM | IC50 (R535A, V 0 mV): 11.9 µM | IC50 (R535A, V 20 mV): 9.48 µM | IC50 (R535A, V 40 mV): 7.82 µM | IC50 (R535A, V 60 mV): 6.65 µM | IC50 (R535A, V 80 mV): 6.02 µM | IC50 (R535A, V 100 mV): 5.51 µM | IC50 (R535A, V 120 mV): 5.53 µM | IC50 (R535A, V 140 mV): 5.76 µM | IC50 (R535A, V -20 mV): 14.9 µM | IC50 (R535A, V -40 mV): 17.7 µM | IC50 (R535A, V -60 mV): 21.4 µM | IC50 (R535A, V -80 mV): 25.9 µM | IC50 (R535A, V -100 mV): 30.1 µM | IC50 (R535A, V -120 mV): 35.1 µM | IC50 (R535A, V -140 mV): 38.8 µM
